In the NIST ThermoML archive (doi:10.1016/j.jct.2011.07.005):

Details: Liquid; for mass density: Vibrating tube method

CCCCC(CC)COC(=O)CCCCCCCCC(=O)OCC(CC)CCCC (centres undefined) [bis(2-ethylhexyl) decanedioate]
Details	mass density [kg/m3]	viscosity [mPa·s]
278.15 K, 101.33 kPa	924.7	–
278.15 K, Concentric cylinders viscometry	–	42.04
283.15 K, 101.33 kPa	921.2	–
283.15 K, Concentric cylinders viscometry	–	32.77
288.15 K, 101.33 kPa	917.6	–
288.15 K, Concentric cylinders viscometry	–	26.01
293.15 K, 101.33 kPa	913.9	–
293.15 K, Concentric cylinders viscometry	–	21
298.15 K, 100 kPa	909.8	–
298.15 K, 101.33 kPa	910.3	–
298.15 K, 1000 kPa	910.4	–
298.15 K, 5000 kPa	912.8	–
298.15 K, 10000 kPa	915.6	–
298.15 K, 15000 kPa	918.4	–
298.15 K, 20000 kPa	921.2	–
298.15 K, 30000 kPa	926.4	–
298.15 K, 40000 kPa	931.4	–
298.15 K, 45000 kPa	933.8	–
298.15 K, 50000 kPa	936.1	–
298.15 K, 60000 kPa	940.6	–
298.15 K, Concentric cylinders viscometry	–	17.21
303.15 K, 101.33 kPa	906.7	–
303.15 K, Concentric cylinders viscometry	–	14.32
308.15 K, 101.33 kPa	903.1	–
308.15 K, Concentric cylinders viscometry	–	12.07
313.15 K, 101.33 kPa	899.5	–
313.15 K, Concentric cylinders viscometry	–	10.28
318.15 K, 101.33 kPa	895.9	–
318.15 K, Concentric cylinders viscometry	–	8.845
323.15 K, 100 kPa	892	–
323.15 K, 101.33 kPa	892.3	–
323.15 K, 1000 kPa	892.6	–
323.15 K, 5000 kPa	895.3	–
323.15 K, 10000 kPa	898.5	–
323.15 K, 15000 kPa	901.7	–
323.15 K, 20000 kPa	904.7	–
323.15 K, 30000 kPa	910.4	–
323.15 K, 40000 kPa	915.8	–
323.15 K, 45000 kPa	918.4	–
323.15 K, 50000 kPa	920.9	–
323.15 K, 60000 kPa	925.7	–
323.15 K, Concentric cylinders viscometry	–	7.679
328.15 K, 101.33 kPa	888.7	–
328.15 K, Concentric cylinders viscometry	–	6.727
333.15 K, 101.33 kPa	885.1	–
333.15 K, Concentric cylinders viscometry	–	5.939
338.15 K, 101.33 kPa	881.4	–
338.15 K, Concentric cylinders viscometry	–	5.275
343.15 K, 101.33 kPa	877.9	–
343.15 K, Concentric cylinders viscometry	–	4.719
348.15 K, 100 kPa	874	–
348.15 K, 101.33 kPa	874.3	–
348.15 K, 1000 kPa	874.7	–
348.15 K, 5000 kPa	877.7	–
348.15 K, 10000 kPa	881.3	–
348.15 K, 15000 kPa	884.8	–
348.15 K, 20000 kPa	888.2	–
348.15 K, 30000 kPa	894.5	–
348.15 K, 40000 kPa	900.5	–
348.15 K, 45000 kPa	903.3	–
348.15 K, 50000 kPa	906	–
348.15 K, 60000 kPa	911.3	–
348.15 K, Concentric cylinders viscometry	–	4.248
353.15 K, 101.33 kPa	870.7	–
353.15 K, Concentric cylinders viscometry	–	3.843
358.15 K, 101.33 kPa	867.1	–
358.15 K, Concentric cylinders viscometry	–	3.494
363.15 K, 101.33 kPa	863.7	–
363.15 K, Concentric cylinders viscometry	–	3.169
368.15 K, 101.33 kPa	859.9	–
368.15 K, Concentric cylinders viscometry	–	2.902
373.15 K, 101.33 kPa	856.4	–
373.15 K, 1000 kPa	856.9	–
373.15 K, 5000 kPa	860.3	–
373.15 K, 10000 kPa	864.3	–
373.15 K, 15000 kPa	868.1	–
373.15 K, 20000 kPa	871.8	–
373.15 K, 30000 kPa	878.8	–
373.15 K, 40000 kPa	885.2	–
373.15 K, 45000 kPa	888.3	–
373.15 K, 50000 kPa	891.3	–
373.15 K, 60000 kPa	897	–
373.15 K, Concentric cylinders viscometry	–	2.661
398.15 K, 1000 kPa	839	–
398.15 K, 5000 kPa	842.8	–
398.15 K, 10000 kPa	847.3	–
398.15 K, 15000 kPa	851.6	–
398.15 K, 20000 kPa	855.8	–
398.15 K, 30000 kPa	863.4	–
398.15 K, 40000 kPa	870.4	–
398.15 K, 45000 kPa	873.7	–
398.15 K, 50000 kPa	877	–
398.15 K, 60000 kPa	883.1	–

viscosity [mPa·s], Falling or rolling sphere viscometry
Details	298.15 K	313.15 K	323.15 K	348.15 K	373.15 K	398.15 K
100 kPa	17	10.2	7.53	4.17	2.67	1.84
1000 kPa	17.3	10.3	7.63	4.21	2.7	1.86
5000 kPa	18.4	10.9	8.09	4.42	2.84	1.96
10000 kPa	19.9	11.7	8.68	4.69	3.03	2.07
15000 kPa	21.5	12.5	9.29	4.97	3.22	2.2
20000 kPa	23.2	13.4	9.94	5.28	3.42	2.32
30000 kPa	26.8	15.2	11.3	5.94	3.83	2.59
40000 kPa	30.8	17.3	12.8	6.68	4.27	2.86
45000 kPa	33	18.4	13.6	7.07	4.49	3.01
50000 kPa	35.2	19.6	14.4	7.48	4.72	3.16
60000 kPa	40	22	16	8.37	5.19	3.46
